The assay addresses hTREM2 (Homo sapiens, UniProt Q9NZC2). The assay is described as follows: TREM2 agonist potency by Syk phosphorylation (AlphaLisa) in HEK293T-hTREM2 cells, used for Examples 306-429. The class given is cell-based. The arrangement: expressed in transfected cells; host or cells: HEK293T (HEK293T-hTREM2 cells). The following applies: HEK293 Cells. In outline:
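HEK293T cells expressing human TREM2 and DAP12, plated 20-24 h before, were exposed to compounds for 45 min at room temperature, then lysed. Phospho-Syk read by AlphaLisa; % activation from a standard curve and EC50 from a four-parameter log(agonist) fit.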

Each structure is given as a SMILES string.

Chain of hTREM2 (Q9NZC2 19-230): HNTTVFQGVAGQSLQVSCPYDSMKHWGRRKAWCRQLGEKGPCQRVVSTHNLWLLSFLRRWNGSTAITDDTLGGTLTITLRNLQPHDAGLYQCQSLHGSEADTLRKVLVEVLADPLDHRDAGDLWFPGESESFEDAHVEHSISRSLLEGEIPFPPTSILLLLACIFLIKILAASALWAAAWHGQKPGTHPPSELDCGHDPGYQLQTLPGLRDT
Chain of hTREM2 (O43914 22-113 partner): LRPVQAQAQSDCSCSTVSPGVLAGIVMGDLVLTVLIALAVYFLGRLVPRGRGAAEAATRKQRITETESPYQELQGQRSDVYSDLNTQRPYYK

Molecule `Cc1cnc2c(C34CC(C)(C3)C4)nc([C@H]3C[C@@H](C)O[C@@H](c4cnn(C5CC5)c4)C3)cc2n1` [Example 421, 7-((2R,4S,6R)-2-(1-cyclopropyl-1H-pyrazol-4-yl)-6-methyltetrahydro-2H-pyran-4-yl)-2-methyl-5-(3-methylbicyclo[1.1.1]pentan-1-yl)pyrido[3,4-b]pyrazine] gave an EC50 of 0.5 to 3 µM.

On to `Cc1cnc2c(-c3ccc(F)cc3F)nc([C@H]3C[C@@H](C)O[C@@H](c4cnn(C5CC5)c4)C3)nc2n1` [Example 415, 2-((2R,4S,6R)-2-(1-cyclopropyl-1H-pyrazol-4-yl)-6-methyltetrahydro-2H-pyran-4-yl)-4-(2,4-difluorophenyl)-7-methylpteridine], for which the EC50 fell in the range of 0.05 to 0.5 µM.

Molecule `Cc1nc2cc([C@H]3CCO[C@@H](c4cnn(C5CC5)c4)C3)nc(C34CC(C(F)(F)F)(C3)C4)c2nc1C` (mixture of isomers) [Example 392, 2,3-dimethyl-7-[2-(1-cyclopropylpyrazol-4-yl)tetrahydropyran-4-yl]-5-[3-(trifluoromethyl)-1-bicyclo[1.1.1]pentanyl]pyrido[3,4-b]pyrazine] registered an EC50 of at most 0.05 µM.

Regarding `Cc1cc([C@@H]2CN(c3cc4nc(C)cnc4c(-c4ccc(F)cc4F)n3)CCO2)ccn1` [Example 333, (R)-4-(5-(2,4-difluorophenyl)-2-methylpyrido[3,4-b]pyrazin-7-yl)-2-(2-methylpyridin-4-yl)morpholine], the EC50 is 0.5 to 3 µM.

Consider `Cc1cc(C2CN(c3cc4nc(C)c(C)cc4c(-c4ccc(F)cc4F)n3)CCO2)ccn1` (stereo not shown) [Example 346, 4-(5-(2,4-difluorophenyl)-2,3-dimethyl-1,6-naphthyridin-7-yl)-2-(2-methylpyridin-4-yl)morpholine], for which the EC50 is at most 0.05 µM.

`Cc1nc2cc(N3C[C@@H](C)O[C@@H](c4cnn(C5CC5)c4)C3)nc(-c3ccc(F)cc3F)c2nc1C` (racemic) [Example 358, 2-(1-cyclopropyl-1H-pyrazol-4-yl)-4-(5-(2,4-difluorophenyl)-2,3-dimethylpyrido[3,4-b]pyrazin-7-yl)-6-methylmorpholine] registered an EC50 of at most 0.05 µM.

For `Cc1ccc2c(C(C)C)nc([C@H]3C[C@@H](C)O[C@@H](c4cnn(C5CC5)c4)C3)nc2n1` [Example 429, 2-((2R,4S,6R)-2-(1-cyclopropyl-1H-pyrazol-4-yl)-6-methyltetrahydro-2H-pyran-4-yl)-4-isopropyl-7-methylpyrido[2,3-d]pyrimidine], the EC50 was 0.5 to 3 µM.

For the molecule `Cc1cc(C2CC(c3cc4nc(C)c(C)nc4c([C@]45C[C@](C(F)(F)F)(C4)C5)n3)CCO2)ccn1` (mixture of isomers) [Example 319, 2,3-dimethyl-7-(2-(2-methylpyridin-4-yl)tetrahydro-2H-pyran-4-yl)-5-(3-(trifluoromethyl)bicyclo[1.1.1]pentan-1-yl)pyrido[3,4-b]pyrazine], the EC50 is at most 0.05 µM.

`Cc1nc2nc(N3CC(C)OC(c4cnn(C5CC5)c4)C3)nc(-c3ccc(F)cc3F)c2nc1C` (stereo not shown) [Example 369, 2-(1-cyclopropyl-1H-pyrazol-4-yl)-4-(4-(2,4-difluorophenyl)-6,7-dimethylpteridin-2-yl)-6-methylmorpholine] gave an EC50 of at most 0.05 µM.

As to `Cc1cc(C2CN(c3cc4nc(C)c(C)cc4c(-c4ccc(C(F)(F)F)nc4)n3)CCO2)ccn1` (stereo not shown) [Example 347, 4-(2,3-dimethyl-5-(6-(trifluoromethyl)pyridin-3-yl)-1,6-naphthyridin-7-yl)-2-(2-methylpyridin-4-yl)morpholine], the EC50 is at most 0.05 µM.

`Cc1cc(C2CC(c3cc4nc(C)c(C)cc4c(-c4ccc(Cl)cc4F)n3)CCO2)ccn1` (stereo not shown) [Example 327, 5-(4-chloro-2-fluorophenyl)-2,3-dimethyl-7-(2-(2-methylpyridin-4-yl)tetrahydro-2H-pyran-4-yl)-1,6-naphthyridine] registered an EC50 of at most 0.05 µM.

Turning to `Cc1nc2cc(N3C[C@@H](c4cnn(C5CC5)c4)O[C@@H](C)C3)nc(-c3ccc(F)cc3F)c2nc1C` [Example 398, (2R,6S)-2-(1-cyclopropyl-1H-pyrazol-4-yl)-4-(5-(2,4-difluorophenyl)-2,3-dimethylpyrido[3,4-b]pyrazin-7-yl)-6-methylmorpholine], the EC50 was at most 0.05 µM.

`Cc1cc(C2CN(c3nc(-c4cc(F)c(Cl)cc4F)c4nc(C)c(C)nc4n3)CCO2)ccn1` (stereo not shown) [Example 352, 4-(4-(4-chloro-2,5-difluorophenyl)-6,7-dimethylpteridin-2-yl)-2-(2-methylpyridin-4-yl)morpholine] registered an EC50 of at most 0.05 µM.

`Cc1cc([C@H]2CN(c3nc(-c4ccc(Cl)c(F)c4F)c4nc(C)c(C)nc4n3)CCO2)ccn1` [Example 363, (S)-4-(4-(4-chloro-2,3-difluorophenyl)-6,7-dimethylpteridin-2-yl)-2-(2-methylpyridin-4-yl)morpholine]: the EC50 is at most 0.05 µM.

Molecule `Cc1nc2cc(N3CCO[C@@H](c4cnn(C5CC5)c4)C3)nc(-c3ccc(Cl)cc3F)c2nc1C` [Example 382, (2S)-4-[5-(4-chloro-2-fluoro-phenyl)-2,3-dimethyl-pyrido[3,4-b]pyrazin-7-yl]-2-(1-cyclopropylpyrazol-4-yl)morpholine] showed an EC50 of at most 0.05 µM.

As for `Cc1cc([C@@H]2C[C@H](c3nc(-c4ccc(Cl)c(F)c4F)c4nc(C)c(C)nc4n3)CCO2)ccn1` [Example 396, 4-(4-chloro-2,3-difluorophenyl)-6,7-dimethyl-2-((2S,4R)-2-(2-methylpyridin-4-yl)tetrahydro-2H-pyran-4-yl)pteridine], the EC50 is 0.05 to 0.5 µM.

Molecule `Cc1cc([C@@H]2CN(c3nc(C45CC(C(F)(F)F)(C4)C5)c4ncc(C)nc4n3)CCO2)ccn1` [Example 353, (R)-4-(7-methyl-4-(3-(trifluoromethyl)bicyclo[1.1.1]pentan-1-yl)pteridin-2-yl)-2-(2-methylpyridin-4-yl)morpholine] displayed an EC50 of 0.05 to 0.5 µM.

Molecule `Cc1cnc2c(-c3ccc(F)cc3F)nc(N3C[C@H](C)O[C@@H](c4cnn(C5CC5)c4)C3)cc2n1` (racemic) [Example 361, 2-(1-cyclopropyl-1H-pyrazol-4-yl)-4-(5-(2,4-difluorophenyl)-2-methylpyrido[3,4-b]pyrazin-7-yl)-6-methylmorpholine] displayed an EC50 of 0.05 to 0.5 µM.

As to `Cc1nc2cc(N3CCO[C@@H](c4cnn(C5CC5)c4)C3)nc(-c3ccc(C(F)(F)F)nc3)c2nc1C` [Example 384, (2S)-2-(1-cyclopropylpyrazol-4-yl)-4-[2,3-dimethyl-5-[6-(trifluoromethyl)-3-pyridyl]pyrido[3,4-b]pyrazin-7-yl]morpholine], the EC50 is at most 0.05 µM.

In turn, `Cc1cc([C@H]2C[C@@H](c3nc(-c4ccc(Cl)c(F)c4F)c4nc(C)c(C)nc4n3)CCO2)ccn1` [Example 397, 4-(4-chloro-2,3-difluorophenyl)-6,7-dimethyl-2-((2R,4S)-2-(2-methylpyridin-4-yl)tetrahydro-2H-pyran-4-yl)pteridine] displayed an EC50 of at most 0.05 µM.

On to `Cc1cnc2c(C34CC(C(F)(F)F)(C3)C4)nc([C@H]3CCO[C@@H](c4cnn(C5CC5)c4)C3)nc2n1` [Example 407, 2-((2R,4S)-2-(1-cyclopropyl-1H-pyrazol-4-yl)tetrahydro-2H-pyran-4-yl)-7-methyl-4-(3-(trifluoromethyl)bicyclo[1.1.1]pentan-1-yl)pteridine], for which the EC50 was at most 0.05 µM.

`Cc1cc([C@@H]2CN(c3nc(-c4cc(F)c(Cl)cc4F)c4nc(C)c(C)nc4n3)CCO2)ccn1` [Example 391, (2R)-4-[4-(4-chloro-2,5-difluoro-phenyl)-6,7-dimethyl-pteridin-2-yl]-2-(2-methyl-4-pyridyl)morpholine] returned an EC50 of at most 0.05 µM.

In turn, `Cc1ccc2c(-c3ccc(Cl)cc3F)nc([C@H]3C[C@@H](C)O[C@@H](c4cnn(C5CC5)c4)C3)nc2n1` [Example 414, 4-(4-chloro-2-fluorophenyl)-2-((2R,4S,6R)-2-(1-cyclopropyl-1H-pyrazol-4-yl)-6-methyltetrahydro-2H-pyran-4-yl)-7-methylpyrido[2,3-d]pyrimidine] had an EC50 of at most 0.05 µM.

`Cc1cc([C@H]2C[C@@H](c3nc(-c4ccc(F)cc4F)c4ccc(C)nc4n3)CCO2)ccn1` (racemic) [Example 323, 4-(2,4-difluorophenyl)-7-methyl-2-(2-(2-methylpyridin-4-yl)tetrahydro-2H-pyran-4-yl)pyrido[2,3-d]pyrimidine] displayed an EC50 of at most 0.05 µM.

In turn, `Cc1nc2cc(N3C[C@@H](C)O[C@@H](c4cnn(C5CC5)c4)C3)nc(-c3ccc(F)cc3F)c2nc1C` [Example 403, (2S,6R)-2-(1-cyclopropyl-1H-pyrazol-4-yl)-4-(5-(2,4-difluorophenyl)-2,3-dimethylpyrido[3,4-b]pyrazin-7-yl)-6-methylmorpholine] gave an EC50 of 0.05 to 0.5 µM.

Turning to `[2H]C([2H])([2H])c1nc2nc([C@H]3CCO[C@@H](c4ccnc(C)c4)C3)nc(-c3ccc(Cl)c(F)c3F)c2nc1C([2H])([2H])[2H]` (racemic) [Example 395, 4-(4-chloro-2,3-difluoro-phenyl)-2-[2-(2-methyl-4-pyridyl)tetrahydropyran-4-yl]-6,7-bis(trideuteriomethyl)pteridine], the EC50 was at most 0.05 µM.

Turning to `Cc1nc2nc([C@@H]3CCO[C@@H](c4cnn(C5CC5)c4)C3)nc(C34CC(C(F)(F)F)(C3)C4)c2nc1C` (stereo in doubt) [Example 365, 2-(2-(1-cyclopropyl-1H-pyrazol-4-yl)tetrahydro-2H-pyran-4-yl)-6,7-dimethyl-4-(3-(trifluoromethyl)bicyclo[1.1.1]pentan-1-yl)pteridine], the EC50 lay within 0.05 to 0.5 µM.

`Cc1cc([C@H]2C[C@@H](c3cc4nc(C)cnc4c(-c4ccc(C(F)(F)F)nc4)n3)CCO2)ccn1` (racemic) [Example 308, 2-methyl-7-(2-(2-methylpyridin-4-yl)tetrahydro-2H-pyran-4-yl)-5-(6-(trifluoromethyl)pyridin-3-yl)pyrido[3,4-b]pyrazine]: the EC50 lay within 0.05 to 0.5 µM.

Values taken from patent US11884675B2, “Heterocyclic compounds as triggering receptor expressed on myeloid cells 2 agonists and methods of use” (AMGEN INC., priority 2020, dated 2024).
